Measurements: patent US7262164B2, “Polymeric thiol-linked prodrugs employing benzyl elimination systems” (Enzon, Inc., priority 2001, dated 2007)
Marks after values point to notes of the source that are not given here.

Columns and labels:
[1] = system: Lung M109 syngeneic solid tumors; assay: In vivo M109 tumor model; set-up: species or system Balb/C mice; details: i.v. day 1 & 4; for T/C (%) at Day 18: control median tumor volume approx. 1000 mm^3; for T/C (%) at Day 25: control median tumor volume approx. 2000 mm^3
Procedure: M109 cells (NCI), derived from donor mice, were grown and expanded in tissue culture for in vivo implantation. Cells were grown in EMEM with 10% FBS and 1% streptomycin/penicillin media, kept in an incubator at 37° C. with 5% CO2and split twice a week. Cells were trypsinized, harvested, washed, counted and prepared in PBS for transport to the vivarium. Cells were kept on ice until implantation was conducted with minimum lag time. A cell suspension of approximately 5×10^6 cells/mL was used. Balb/C mice were implanted subcutaneous with 100 μL of the above cell suspension (Day 0). Treatments were administered intravenously on Day 1 and Day 4. Compound doses were based on the content of 6-MP. Body weight and tumor volume were then measured twice weekly until the group's median tumor volume exceeded 2000 mm^3. The tumor volume for each mouse was determined by measuring two dimensions with calipers and calculated using the formula: tumor volume=(length×width^2)/2. Drug effects were determined by comparing tumor growth in treated versus control (no vehicle) mice. Two types of endpoints were used as the basis for comparison: (a) the percent difference in tumor volume (% T/C), measured when the control group's median tumor volume reached approximately 800-1100 mm^3 (exponential growth phase) and (b) again when the control group's median tumor volume was approximately 2000 mm^3.

Solubility in water = type: physicochemical
[2] = system: murine leukemia cell line L1210/O; assay: In vivo L1210 tumor model (ascites); set-up: species or system mouse; details: Q2d×6, IP, intralipid
From the text: 6-MP and pro-drug forms of 6-MP were screened for in vivo activity against the murine leukemia cell line L1210/O (mouse, lymphocytic leukemia). The cell line was obtained from Southern Research Institute (Birmingham, Ala.) and grown in DMEM supplemented with 10% horse serum. L 1210/O cells were subcultured two times per week and log phase cultures (viability≧95%) were used for all in vivo experiments. Female CD2F1 mice (Taconic Farms, Germantown, N.Y.) at 7-8 weeks of age were used for study. Following one week of acclimation, mice were implanted i.p. with L1210/0 cells (5×10^5 cells/mouse) at designated day 0. The mice were randomly assigned to experimental groups (8-10/group). The groups included control, 6-MP and PEG-6-MP conjugates. 6-MP was solubilized in 3% DMSO and suspended in intralipid and administered Q2d×6, IP. PEG-6-MP was dissolved in phosphate buffer (pH 5.8) and administered Q4d×3, IV. Control groups received vehicle (intralipid or phosphate buffer). The mice were monitored for up to 40 days, and the treatment was evaluated as percentage of increase in life span (ILS).

P388/0 cell lines = assay: Cytotoxicity assay, Alamar Blue cell growth; type: cell-based; details: Mus musculus, 72 h, P388/0 cells, 3 days
Procedure: Cell Lines and Cytotoxicity Assays. Studies using P388/0 cell lines for IC50 (drug concentration inhibiting growth of cells by 50%) were maintained and conducted as previously reported. Briefly, for IC50 determination, cells were seeded into the microwell plates at a density of 2×10^3 cells per 50 μL per well. Plates were incubated at 37° C. in a humidified incubator with 5% CO2 for 3 days. Cell growth was measured by the addition of 10 μL/well of Alamar Blue (Alamar Biosciences, Inc., Sacramento, Calif.) and the plates were incubated a further 4 hours at 37° C. The IC50values for each compound were determined from absorbance versus dilution factor plots. All cell cultures for animal implantation were maintained at 37° C. in a humidified atmosphere of 5% CO2/[…] and subcultured once a week. All cell lines were periodically tested for Mycoplasma and were Mycoplasma free.

[3] = total dose 200 mg/kg (6-MP content)

Row | SMILES | Anti-tumor activity, inhibiting the growth of M109 solid tumors (in words) ([1]; Balb/C mice) | T/C (%) at Day 18 [1, 3] | T/C (%) at Day 25 [1, 3] | solubility (Solubility in water) | % ILS (percent increase in life span) ([2]; total dose 90 mg/kg) | % ILS (percent increase in life span) ([2]; total dose 240 mg/kg) | T/C (%) at Day 18 ([1]; total dose 40 mg/kg) | T/C (%) at Day 25 ([1]; total dose 40 mg/kg) | IC50 (P388/0 cell lines)
1 | Sc1ncnc2nc[nH]c12 [6-MP (1), 6-mercaptopurine] | ineffective | 144% | 184% | < 100 µg/mL | 31.8% | 52.5* % |  |  | 
2 | Nc1nc2nc[nH]c2c(=S)[nH]1 [6-TG (2), 6-thioguanine] |  |  |  |  |  |  | 82% | 78% | 360 nM
